Results: ChEMBL document CHEMBL4725377, “The neuronal calcium ion channel activity of constrained analogues of MONIRO-1” (Bioorg Med Chem, 2020)

Experiments:
[1] = biological target: T1, Voltage-dependent N-type calcium channel subunit alpha-1B (Homo sapiens, UniProt Q00975); experiment: Inhibition of human N type calcium channel Cav2.2 endogenously expressed in SH-SY5Y cells assessed as calcium influx by FRIPR assay; assay type: cell-based
[2] = biological target: T1, Voltage-dependent N-type calcium channel subunit alpha-1B; experiment: Inhibition of human Cav2.2 expressed in HEK293 cells by whole cell patch clamp electrophysiology method; assay type: cell-based
[3] = Inhibition of human Cav3 expressed in HEK293 cells by whole cell patch clamp electrophysiology method; assay type: cell-based
[4] = biological target: Voltage-dependent T-type calcium channel subunit alpha-1H (Homo sapiens, UniProt O95180); experiment: Inhibition of human T type calcium channel Cav3.2 expressed in HEK-293T cells assessed as calcium influx by FRIPR assay; assay type: cell-based
[5] = Stability of the compound in Sprague-Dawley rat plasma assessed as half-life measured by RP-HPLC; assay type: ADME, cell-free

T1 sequence (Q00975 whole entry): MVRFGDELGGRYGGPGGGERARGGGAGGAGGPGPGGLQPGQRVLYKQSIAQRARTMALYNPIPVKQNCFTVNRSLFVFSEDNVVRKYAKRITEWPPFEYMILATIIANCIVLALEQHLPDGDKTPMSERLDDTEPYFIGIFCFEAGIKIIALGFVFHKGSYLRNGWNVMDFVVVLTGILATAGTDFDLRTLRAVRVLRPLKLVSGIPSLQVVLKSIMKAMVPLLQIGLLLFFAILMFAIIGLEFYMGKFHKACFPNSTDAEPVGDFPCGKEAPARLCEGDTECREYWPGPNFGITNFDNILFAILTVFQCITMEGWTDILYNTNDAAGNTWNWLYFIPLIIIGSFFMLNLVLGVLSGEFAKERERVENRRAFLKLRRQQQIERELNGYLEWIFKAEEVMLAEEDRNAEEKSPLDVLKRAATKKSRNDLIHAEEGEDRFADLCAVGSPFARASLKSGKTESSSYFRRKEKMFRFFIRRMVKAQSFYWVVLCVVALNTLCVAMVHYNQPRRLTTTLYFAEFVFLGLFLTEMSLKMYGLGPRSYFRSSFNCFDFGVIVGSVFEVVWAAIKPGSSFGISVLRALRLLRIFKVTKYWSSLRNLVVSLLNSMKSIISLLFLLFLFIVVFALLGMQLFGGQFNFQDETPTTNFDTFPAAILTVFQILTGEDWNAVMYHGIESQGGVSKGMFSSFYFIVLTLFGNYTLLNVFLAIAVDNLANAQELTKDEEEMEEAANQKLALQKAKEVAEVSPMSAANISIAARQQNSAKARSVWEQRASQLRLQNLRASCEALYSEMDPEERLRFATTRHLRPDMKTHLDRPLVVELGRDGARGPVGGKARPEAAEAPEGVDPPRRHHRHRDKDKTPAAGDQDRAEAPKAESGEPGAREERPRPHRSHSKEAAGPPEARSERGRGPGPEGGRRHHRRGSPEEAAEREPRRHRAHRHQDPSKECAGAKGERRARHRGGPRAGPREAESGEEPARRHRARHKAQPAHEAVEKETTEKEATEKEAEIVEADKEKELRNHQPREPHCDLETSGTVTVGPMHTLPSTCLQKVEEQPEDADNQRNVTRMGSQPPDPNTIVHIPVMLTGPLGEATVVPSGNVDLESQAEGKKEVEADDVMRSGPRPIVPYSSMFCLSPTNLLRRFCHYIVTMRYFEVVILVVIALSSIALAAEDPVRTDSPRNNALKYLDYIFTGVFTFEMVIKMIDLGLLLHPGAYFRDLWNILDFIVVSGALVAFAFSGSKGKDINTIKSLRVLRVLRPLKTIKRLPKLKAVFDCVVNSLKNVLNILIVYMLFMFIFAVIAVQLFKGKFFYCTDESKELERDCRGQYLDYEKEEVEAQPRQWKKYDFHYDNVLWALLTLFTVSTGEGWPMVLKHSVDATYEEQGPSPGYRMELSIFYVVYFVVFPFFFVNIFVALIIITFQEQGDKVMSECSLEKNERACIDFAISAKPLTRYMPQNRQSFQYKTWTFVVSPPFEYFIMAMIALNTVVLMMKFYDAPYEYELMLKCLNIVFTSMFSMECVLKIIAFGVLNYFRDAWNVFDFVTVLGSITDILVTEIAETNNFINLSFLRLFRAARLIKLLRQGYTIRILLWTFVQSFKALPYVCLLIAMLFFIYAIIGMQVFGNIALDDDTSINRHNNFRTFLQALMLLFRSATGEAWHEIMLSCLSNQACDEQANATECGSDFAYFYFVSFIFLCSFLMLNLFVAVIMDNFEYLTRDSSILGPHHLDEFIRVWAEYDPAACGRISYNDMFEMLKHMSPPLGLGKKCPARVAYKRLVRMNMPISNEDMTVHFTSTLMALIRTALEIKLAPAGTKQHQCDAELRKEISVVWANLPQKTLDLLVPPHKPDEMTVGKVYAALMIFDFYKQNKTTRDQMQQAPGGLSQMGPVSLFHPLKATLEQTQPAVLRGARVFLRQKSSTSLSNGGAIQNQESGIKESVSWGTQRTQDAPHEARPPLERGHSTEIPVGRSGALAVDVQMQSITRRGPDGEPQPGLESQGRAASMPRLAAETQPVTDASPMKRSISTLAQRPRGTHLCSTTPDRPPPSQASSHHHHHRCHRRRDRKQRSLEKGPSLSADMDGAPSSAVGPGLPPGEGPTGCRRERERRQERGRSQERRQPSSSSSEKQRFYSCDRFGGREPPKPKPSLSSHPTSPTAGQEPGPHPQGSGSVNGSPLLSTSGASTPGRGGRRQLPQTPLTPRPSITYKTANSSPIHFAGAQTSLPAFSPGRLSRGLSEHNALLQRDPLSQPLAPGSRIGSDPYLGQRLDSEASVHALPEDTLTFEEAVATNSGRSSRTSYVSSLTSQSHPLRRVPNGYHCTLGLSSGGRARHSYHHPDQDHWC
Voltage-dependent T-type calcium channel subunit alpha-1H, sequence (O95180 whole entry): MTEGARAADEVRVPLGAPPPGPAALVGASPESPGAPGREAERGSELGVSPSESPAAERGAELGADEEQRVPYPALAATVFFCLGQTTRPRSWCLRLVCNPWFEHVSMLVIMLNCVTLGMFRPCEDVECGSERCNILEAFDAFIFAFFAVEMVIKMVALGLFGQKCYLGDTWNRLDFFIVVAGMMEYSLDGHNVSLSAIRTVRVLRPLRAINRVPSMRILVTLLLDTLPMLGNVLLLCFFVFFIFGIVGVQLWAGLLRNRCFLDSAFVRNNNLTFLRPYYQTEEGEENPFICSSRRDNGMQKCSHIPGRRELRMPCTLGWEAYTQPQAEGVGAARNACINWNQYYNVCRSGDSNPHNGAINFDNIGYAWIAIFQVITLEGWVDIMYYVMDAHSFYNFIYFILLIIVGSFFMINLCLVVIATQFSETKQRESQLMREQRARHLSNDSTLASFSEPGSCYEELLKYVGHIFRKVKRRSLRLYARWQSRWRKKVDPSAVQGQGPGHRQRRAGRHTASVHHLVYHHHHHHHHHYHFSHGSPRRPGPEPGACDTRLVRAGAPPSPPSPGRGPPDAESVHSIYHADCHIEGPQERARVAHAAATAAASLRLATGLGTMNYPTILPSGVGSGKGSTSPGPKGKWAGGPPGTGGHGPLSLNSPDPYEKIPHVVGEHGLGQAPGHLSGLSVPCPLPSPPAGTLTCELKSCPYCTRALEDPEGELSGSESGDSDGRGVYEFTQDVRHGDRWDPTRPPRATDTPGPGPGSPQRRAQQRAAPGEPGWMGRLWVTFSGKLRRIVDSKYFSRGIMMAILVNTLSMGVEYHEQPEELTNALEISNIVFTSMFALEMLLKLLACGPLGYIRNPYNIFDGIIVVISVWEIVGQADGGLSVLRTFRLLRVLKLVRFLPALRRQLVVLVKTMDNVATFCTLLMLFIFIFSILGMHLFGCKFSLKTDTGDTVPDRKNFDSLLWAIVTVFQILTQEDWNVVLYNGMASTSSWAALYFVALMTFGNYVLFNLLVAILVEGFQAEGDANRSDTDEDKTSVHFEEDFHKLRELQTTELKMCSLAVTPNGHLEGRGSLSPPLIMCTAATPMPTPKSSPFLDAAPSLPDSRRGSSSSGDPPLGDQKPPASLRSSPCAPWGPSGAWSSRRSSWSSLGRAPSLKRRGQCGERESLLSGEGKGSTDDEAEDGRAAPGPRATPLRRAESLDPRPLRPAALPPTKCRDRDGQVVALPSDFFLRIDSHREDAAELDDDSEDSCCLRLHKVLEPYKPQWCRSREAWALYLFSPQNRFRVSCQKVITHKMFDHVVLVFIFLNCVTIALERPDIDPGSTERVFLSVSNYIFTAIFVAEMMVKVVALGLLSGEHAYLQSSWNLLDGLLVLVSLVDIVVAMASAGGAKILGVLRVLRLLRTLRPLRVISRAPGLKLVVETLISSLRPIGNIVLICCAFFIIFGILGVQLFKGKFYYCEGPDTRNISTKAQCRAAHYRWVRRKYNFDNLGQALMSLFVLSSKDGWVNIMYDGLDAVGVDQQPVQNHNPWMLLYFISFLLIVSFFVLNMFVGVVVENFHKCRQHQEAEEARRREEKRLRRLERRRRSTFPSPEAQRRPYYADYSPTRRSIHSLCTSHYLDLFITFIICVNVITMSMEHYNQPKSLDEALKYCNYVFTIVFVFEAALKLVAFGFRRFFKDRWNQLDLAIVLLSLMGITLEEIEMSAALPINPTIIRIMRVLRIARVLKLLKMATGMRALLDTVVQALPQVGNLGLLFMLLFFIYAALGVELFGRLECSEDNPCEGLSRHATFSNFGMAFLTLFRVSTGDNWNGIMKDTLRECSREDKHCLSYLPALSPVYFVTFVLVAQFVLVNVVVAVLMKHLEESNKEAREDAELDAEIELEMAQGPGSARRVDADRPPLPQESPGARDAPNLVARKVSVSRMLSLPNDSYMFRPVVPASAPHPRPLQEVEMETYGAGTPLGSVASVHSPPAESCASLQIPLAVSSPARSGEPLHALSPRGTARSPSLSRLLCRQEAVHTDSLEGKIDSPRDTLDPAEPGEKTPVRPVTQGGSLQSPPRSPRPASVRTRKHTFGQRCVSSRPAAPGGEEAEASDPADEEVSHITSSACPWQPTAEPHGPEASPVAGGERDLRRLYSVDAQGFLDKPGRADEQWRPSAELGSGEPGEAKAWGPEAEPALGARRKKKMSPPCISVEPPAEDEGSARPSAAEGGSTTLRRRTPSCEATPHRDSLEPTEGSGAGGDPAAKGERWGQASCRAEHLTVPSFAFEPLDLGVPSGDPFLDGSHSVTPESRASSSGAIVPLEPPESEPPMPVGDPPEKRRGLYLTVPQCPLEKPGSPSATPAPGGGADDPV

Structure (SMILES): NC(N)=NCCCOc1ccc(C(=O)Nc2ccccc2Oc2ccc(F)cc2)cc1
- IC50 [1]: 185 µM
- IC50 [2]: 34 µM
- IC50 [3]: 2000 nM

Structure (SMILES): O=C(c1ccc(OCCCN2CCCC2)cc1)N1c2ccccc2Oc2ccccc21
- IC50 [4]: 49 µM

Structure (SMILES): NC(N)=NCCCOc1ccc(C(=O)N2c3ccccc3Oc3ccccc32)cc1
- IC50 [4]: 164 µM

Structure (SMILES): O=C(c1ccc(OCCCN2CCCC2)cc1)N1c2ccccc2CCc2ccccc21
- IC50 [1]: 98 µM
- IC50 [4]: 110 µM

Structure (SMILES): COCCOC(=O)C1=C(C)NC(C)=C(C(=O)OC/C=C/c2ccccc2)C1c1cccc([N+](=O)[O-])c1 (configuration not stated) [CILNIDIPINE]
- IC50 [1]: 26 µM
- IC50 [4]: 24 µM

Structure (SMILES): O=C(c1ccc(OCCCN2CCOCC2)cc1)N1c2ccccc2Oc2ccccc21
- IC50 [4]: 133 µM

Structure (SMILES): CN(C)CCCOc1ccc(C(=O)N2c3ccccc3C=Cc3ccccc32)cc1
- half-life [5]: > 2.5 days

Structure (SMILES): CN(C)CCCOc1ccc(C(=O)N2c3ccccc3CCc3ccccc32)cc1
- half-life [5]: > 2.5 days

Structure (SMILES): O=C(c1ccc(OCCCN2CCCC2)cc1)N1c2ccccc2C=Cc2ccccc21
- IC50 [1]: 107 µM
- IC50 [4]: 113 µM

Structure (SMILES): CN(C)CCCOc1ccc(C(=O)Nc2ccccc2Oc2ccccc2)cc1
- IC50 [1]: 49 µM
- IC50 [4]: 19 µM

Structure (SMILES): Cc1cccc(C)c1Oc1ccccc1NC(=O)c1ccc(OCCCN(C)C)cc1
- IC50 [1]: 62 µM
- IC50 [4]: 55 µM

Structure (SMILES): O=C(c1ccc(OCCCN2CCOCC2)cc1)N1c2ccccc2C=Cc2ccccc21
- IC50 [1]: 259 µM
- IC50 [4]: 193 µM

Structure (SMILES): O=C(c1ccc(OCCCN2CCOCC2)cc1)N1c2ccccc2CCc2ccccc21
- IC50 [1]: 78 µM
- IC50 [4]: 80 µM
